“And” between values parts separate entries of the source, which are not always exact repeats. Equal values may be shown once. One block for each molecule: values may come before it.
Columns and labels:
[1] = instrument: DT, stepped-field
[2] = [M+H]+; instrument: DT; single field
[3] = instrument: DT, single field, calibrated with Agilent tune mix (Agilent)
[4] = instrument: TW, calibrated with phosphatidylcholines (ESI+) and phosphatidylethanolamines (ESI-)
[5] = [M+Na]+; instrument: DT; stepped-field

Compound: CCCCCC/C=C\CCCCCCCC(=O)OC[C@@H](O)COP(=O)(O)O [LPA(16:1)]
collision cross section (N2) ([1]; [M-H]-): 191.1 Å²

Compound: CCCCCCCCCCCCCCCCCC(=O)O[C@H](CO)COP(=O)(O)O [LPA(18:0)]
collision cross section (N2) ([1]; [M-H]-): 206.2 Å²

Compound: CCCCCCCCCCCCCCCCCC(=O)OC[C@@H](O)COP(=O)(O)OC[C@@H](O)CO [LPG(18:0)]
collision cross section (N2) ([1]; [M-H]-): 221.9 Å²

Compound: CCCCCCCC/C=C\CCCCCCCC(=O)OC[C@@H](O)COP(=O)(O)O[C@H]1C(O)C(O)C(O)[C@@H](O)C1O (stereo partly drawn) [LPI(18:1)]
collision cross section (N2) ([1]; [M-H]-): 233.4 Å²

Compound: CCCCCCC/C=C\CCCCCCCC(=O)O[C@H](COC(=O)CCCCCCCCCCCC)COP(=O)([O-])OCC[N+](C)(C)C [PC(14:0/16:1)]
collision cross section (N2) ([1]; [M+H]+): 283.6 Å²

Compound: CCCCCCCCCCCCCCCCCCCC(=O)O[C@H](COC(=O)CCCCCCCCCCC)COP(=O)([O-])OCC[N+](C)(C)C [PC(32:0)]
collision cross section (N2) [2]: 282.65 Å² and 284.23 Å² | collision cross section (N2) ([3]; [M+H]+): 283.4 Å² | collision cross section (N2) ([4]; [M+H]+): 281 Å²

Compound: CCCCCCCCCCCCCCCCC(=O)O[C@H](COC(=O)CCCCCCCCCCCCCC)COP(=O)(O)OC[C@@H](O)CO [PG(32:0)]
collision cross section (N2) ([3]; [M-H]-): 265.1 Å² | collision cross section (N2) ([1]; [M-H]-): 270.3 Å² | collision cross section (N2) ([4]; [M+Na]+): 277.3 Å² | collision cross section (N2) ([4]; [M-H]-): 263.5 Å²

Compound: CCCCCCCCCC/C=C\CCCCCCCCCC(=O)O[C@H](COC(=O)CCCCCCCCCCCCC)COP(=O)(O)O[C@H]1C(O)C(O)C(O)[C@@H](O)C1O (stereo partly drawn) [PI(18:0/18:1)]
collision cross section (N2) ([1]; [M-H]-): 297.5 Å² and 297.7 Å²

Compound: CCCCCCCC/C=C\CCCCCCCC(=O)O[C@H](COC(=O)CCCCCCCCCCCCCCC)COP(=O)(O)OC[C@H](N)C(=O)O [PS(16:0/18:1)]
collision cross section (N2) ([1]; [M-H]-): 278.8 Å²

Compound: CCCC/C=C\CCCCCCCC(=O)OC[C@H](COP(=O)(O)OC[C@H](N)C(=O)O)OC(=O)CCCCCCC/C=C\CCCCCCCC [PS(16:1/16:1)]
collision cross section (N2) ([1]; [M-H]-): 270.6 Å²

Compound: CCCCCC/C=C\CCCCCCCC(=O)OC[C@H](COP(=O)(O)OC[C@H](N)C(=O)O)OC(=O)CCCCCCCCC/C=C\CCCCCCCCCC [PS(38:2)]
collision cross section (N2) ([1]; [M-H]-): 294.3 Å²

Compound: CCCCC/C=C\C/C=C\CCCCCCCCCCCC(=O)O[C@H](COC(=O)CCCCCCCCCCCCCCCCC)COP(=O)(O)OC[C@H](N)C(=O)O [PS(40:2)]
collision cross section (N2) ([1]; [M-H]-): 301 Å²

Compound: CCCCCCCCCCCCC=CC[C@@H](O)[C@H](COP(=O)([O-])OCC[N+](C)(C)C)NC(=O)CCCCCCCCCCCCCCCCC [SM(36:1)]
collision cross section (N2) [2]: 286.91 Å² | collision cross section (N2) ([3]; [M+HCOO]-): 286.4 Å² | collision cross section (N2) ([3]; [M+H]+): 289.1 Å² | collision cross section (N2) ([3]; [M+Na]+): 290 Å² | collision cross section (N2) [5]: 292.4 Å²

Compound: CCCCCCCCCCCCC=CC[C@@H](O)[C@H](COP(=O)([O-])OCC[N+](C)(C)C)NC(=O)CC=CCCCCCCCCCCCCCCCCCC [SM(40:2)]
collision cross section (N2) [2]: 298.58 Å² | collision cross section (N2) ([3]; [M+H]+): 298.4 Å² | collision cross section (N2) [5]: 301.7 Å²

Now from value to molecule:

collision cross section (N2) ([1]; [M-H]-): 250 Å²
Compound: CCCCC/C=C\C/C=C\CCCCCCCCCC(=O)O[C@H](COC(=O)CCCCCCCCCCC)COP(=O)(O)O [PA(16:1/16:1)]

collision cross section (N2) ([1]; [M-H]-): 257 Å²
Compound: CCCCC/C=C\C/C=C\CCCCCCCCCCCC(=O)O[C@H](COC(=O)CCCCCCCCCCC)COP(=O)(O)O [PA(16:1/18:1)]

collision cross section (N2) ([3]; [M+HCOO]-): 291.9 Å² | collision cross section (N2) ([3]; [M+Na]+): 293.3 Å² | collision cross section (N2) ([1]; [M+H]+): 299.9 Å² | collision cross section (N2) ([4]; [M+CH3COO]-): 294 Å² | collision cross section (N2) ([4]; [M+H]+): 286.8 Å²
Compound: CC/C=C\C/C=C\C/C=C\CCCCCCCC(=O)OC[C@H](COP(=O)([O-])OCC[N+](C)(C)C)OC(=O)CCCCCC/C=C\C/C=C\C/C=C\CCCCC [PC(38:6)]

collision cross section (N2) ([1]; [M+H]+): 294 Å²
Compound: CCCCC/C=C\C/C=C\C/C=C\CCCCC(=O)O[C@H](COCCCCCCCCCCCCCCCC)COP(=O)([O-])OCC[N+](C)(C)C [PC(o34:3)]

collision cross section (N2) ([1]; [M+H]+): 297.2 Å²
Compound: CCCCC/C=C\C/C=C\C/C=C\C/C=C\CCCC(=O)O[C@H](COCCCCCCCCCCCCCCCC)COP(=O)([O-])OCC[N+](C)(C)C [PC(o36:4)]

collision cross section (N2) ([1]; [M+H]+): 276.6 Å²
Compound: CCCC/C=C\CCCCCCCCCC(=O)OC[C@H](COP(=O)(O)OCCN)OC(=O)CCCCCCCCC/C=C\CCCC [PE(16:1/16:1)]

collision cross section (N2) ([1]; [M+H]+): 299.8 Å²
Compound: CCCC/C=C\CCCCCCCCCCCC(=O)O[C@H](COC(=O)CCCCCCCCCCCCCCCCCCC)COP(=O)(O)OCCN [PE(38:1)]

collision cross section (N2) ([3]; [M+H]+): 285.1 Å² | collision cross section (N2) ([1]; [M+H]+): 298.6 Å² | collision cross section (N2) ([4]; [M-H]-): 274.1 Å²
Compound: CCCCCC/C=C\CCCCCCCC(=O)OC[C@H](COP(=O)(O)OCCN)OC(=O)CCCCCCCCC/C=C\CCCCCCCCCC [PE(38:2)]

collision cross section (N2) [5]: 285.4 Å² | collision cross section (N2) ([1]; [M+H]+): 290.1 Å² | collision cross section (N2) ([1]; [M-H]-): 273.1 Å²
Compound: CCCCC/C=C\C/C=C\C/C=C\CCCCC(=O)O[C@H](COCCCCCCCCCCCCCCCCCC)COP(=O)(O)OCCN [PE(o36:3)]

collision cross section (N2) [5]: 281.6 Å² | collision cross section (N2) ([1]; [M-H]-): 270 Å²
Compound: CCCCC/C=C\C/C=C\C/C=C\C/C=C\CCCC(=O)O[C@H](COCCCCCCCCCCCCCCCC)COP(=O)(O)OCCN [PE(o36:4)]

collision cross section (N2) [5]: 287.7 Å² | collision cross section (N2) ([1]; [M-H]-): 277.8 Å²
Compound: CCCCC/C=C\C/C=C\C/C=C\C/C=C\C/C=C\CCC(=O)O[C@H](COCCCCCCCCCCCCCCCC)COP(=O)(O)OCCN [PE(o38:5)]

collision cross section (N2) ([1]; [M-H]-): 274 Å² and 273.8 Å² and 274.3 Å²
Compound: CCCCC/C=C\C/C=C\CCCCCCCCCCCC(=O)O[C@H](COC(=O)CCCCCCCCCCC)COP(=O)(O)OC[C@@H](O)CO [PG(16:1/18:1)]

collision cross section (N2) ([3]; [M+H]+): 285.4 Å² | collision cross section (N2) ([3]; [M+NH4]+): 286.5 Å² | collision cross section (N2) ([3]; [M-H]-): 272.8 Å² | collision cross section (N2) ([1]; [M-H]-): 280 Å² | collision cross section (N2) ([4]; [M+Na]+): 282 Å² | collision cross section (N2) ([4]; [M-H]-): 272.2 Å²
Compound: CCCC/C=C\CCCCCCCC(=O)OC[C@H](COP(=O)(O)OC[C@@H](O)CO)OC(=O)CCCCCCCCCCC/C=C\C/C=C\CCCCC [PG(36:3)]

collision cross section (N2) ([1]; [M-H]-): 285.5 Å²
Compound: CCCCC/C=C\C/C=C\CCCCCCCCCCCC(=O)O[C@H](COC(=O)CCCCCCCCCCCCCC)COP(=O)(O)OC[C@@H](O)CO [PG(37:2)]

collision cross section (N2) ([3]; [M+H]+): 296.4 Å² | collision cross section (N2) ([3]; [M+NH4]+): 297.4 Å² | collision cross section (N2) ([3]; [M+Na]+): 295.5 Å² | collision cross section (N2) ([1]; [M-H]-): 296.3 Å² | collision cross section (N2) ([4]; [M+Na]+): 291.1 Å² | collision cross section (N2) ([4]; [M-H]-): 287.2 Å²
Compound: CCCC/C=C\C/C=C\CCCCCCCC(=O)O[C@H](COC(=O)CCCCCCC/C=C\CCCCCCCCC)COP(=O)(O)O[C@H]1C(O)C(O)C(O)[C@@H](O)C1O (stereo partly drawn) [PI(36:3)]

collision cross section (N2) ([1]; [M-H]-): 272.6 Å²
Compound: CCCCCCCCC/C=C\CCCCCCCC(=O)O[C@H](COC(=O)CCCCCCCCCCCC)COP(=O)(O)OC[C@H](N)C(=O)O [PS(16:0/16:1)]

collision cross section (N2) ([3]; [M+H]+): 295.2 Å² | collision cross section (N2) ([1]; [M-H]-): 299 Å²
Compound: CCCCC/C=C\C/C=C\CCCCCCCCCCCC(=O)O[C@H](COC(=O)CCCCCCC/C=C\CCCCCCCC)COP(=O)(O)OC[C@H](N)C(=O)O [PS(40:3)]

From the C3SDB collision cross section collection
